Data from patent US10364247B2, “Preparation and use of novel protein kinase inhibitors” (Ruijin Hospital Affiliated to Shanghai Jiao Tong University …, priority 2015, dated 2019).

How the values were obtained:
Assay type in all cases: cell-based, murine
BaF3-BCR/ABL = target: T1, BaF3-BCR/ABL (Homo sapiens, UniProt P00519); experiment: Antiproliferative activity, kinase-dependent Ba/F3 cells (MTT/MTS); conditions: 48 hours, cell viability, read-out: BCR/ABL IC50
T1 construct: fused on or other part: P11274 (Breakpoint cluster region protein)
Protocol: (§1) Following up on the kinome data, the ability of compounds disclosed in the present invention to inhibit proliferation of cells that are dependent on selected protein kinases was tested. […] In addition, compounds were assayed to measure their capacity to inhibit TIE1, LYN, EML4-ALK, INSR and HCK kinases.
(§2) The murine cell line used is the BaF/3 cell line transformed with BCR/ABL cDNA (BaF/3-p210) or BCR/ABL-T315I mutant (Ba/F3-p210-T315I). These cells are maintained in RPMI/10% fetal calf serum (RPMI/FCS) supplemented with penicillin 50 μg/mL, streptomycin 50 μg/mL and L-glutamine […]. Untransformed BaF/3 cells (Wt-BaF/3) are similarly maintained with the addition of 15% of WEHI conditioned medium as a source of IL3.
(§3) Cells were seeded at a density of 20,000 cells/well into 96-well plates.
(§4) The background control wells to which media with no cells added and the vehicle control wells were included on each plate in triplicate. Cell viability was determined using MTT (Sigma, St. Louis, Mo., USA) and MTS (Promega, Madison, Wis., USA), according to the manufacturer's instructions. Results were analyzed using GraphPad Prism 5.0 (GraphPad Software, San Diego, Calif.) and IC50 values were calculated from cell viability dose-response curves and defined as the concentration of compound needed to reduce cell viability to 50% of a vehicle control (DMSO) (Table 3).

BaF3-BCR/ABL-T315I = target: T2, BaF3-BCR/ABL-T315I (Homo sapiens, UniProt P00519, T315I, cells depend on it); experiment: as above; conditions: 48 hours, cell viability, read-out: BCR/ABL T315I IC50
T2 construct: fused on or other part: P11274 (Breakpoint cluster region protein)
Protocol: as §1, §2, §3, §4

BaF3-EML4-ALK = target: T3, BaF3-EML4-ALK (Homo sapiens, UniProt Q9UM73); experiment: as above; conditions: 48 hours, cell viability, read-out: EML4-ALK IC50
T3 construct: fused on or other part: Q9HC35 (Echinoderm microtubule-associated protein-like 4)
Protocol: as §1, §2, §3, §4
(§5) Cell proliferation assays of compounds of the invention against TIE1, LYN, EML4-ALK, INSR and Hck were conducted using identical methods as described above for BCR/ABL, except that BaF3-TEL-TIE1, BaF3-TEL-LYN, BaF3-EML4-ALK, BaF3-TEL-INSR, and BaF3-TEL-HCK are used instead of BaF3-BCR/ABL (Table 3 and 4).

BaF3-TEL-HCK = target: T4, BaF3-TEL-HCK (Homo sapiens, UniProt P08631); experiment: as above; conditions: 48 hours, cell viability, read-out: Tel-HCK IC50
T4 construct: fused on or other part: P41212 (Transcription factor ETV6)
Protocol: as §1, §2, §3, §4, §5

BaF3-TEL-INSR = target: T5, BaF3-TEL-INSR (Homo sapiens, UniProt P06213); experiment: as above; conditions: 48 hours, cell viability, read-out: Tel-INSR IC50
T5 construct: fused on or other part: P41212 (Transcription factor ETV6)
Protocol: as §1, §2, §3, §4, §5

BaF3-TEL-LYN = target: T6, BaF3-TEL-LYN (Homo sapiens, UniProt P07948); experiment: as above; conditions: 48 hours, cell viability, read-out: tel-LYN IC50
T6 construct: fused on or other part: P41212 (Transcription factor ETV6)
Protocol: as §1, §2, §3, §4, §5

BaF3-TEL-TIE1 = target: T7, BaF3-TEL-TIE1 (Homo sapiens, UniProt P35590); experiment: as above; conditions: 48 hours, cell viability, read-out: tel-TIE1 IC50
T7 construct: fused on or other part: P41212 (Transcription factor ETV6)
Protocol: as §1, §2, §3, §4, §5

BaF3-KRASD12 = experiment: Oncogenic RAS dependent cell proliferation (CellTiter Glo); conditions: Mus musculus, BaF3-KRASD12 cells, 48 hours, read-out: KRas-BaF3 IC50
Protocol: (§6) The BaF/3 cell line transformed with oncogenic NRAS or KRAS (BaF/3-NRASD12 or BaF/3-KRASD12) and the parental BaF/3 cells were used to measure the abilities of compounds of the invention to suppress RAS transformation (Table 5). Cells were seeded at a density of 5000 cells/well into 96-well plates. […] The background control wells to which media with no cells added and the vehicle control wells were included on each plate in triplicate. Cell viability was determined using CellTiter Glo Assay (Promega) according to manufacture's instruction with a minor modification of diluting 1 part CellTiter Glo reagent to 4 parts phosphate buffered saline (PBS) before use. The luminescence value was read out by an Envision (PerkinElmer).

BaF3-NRASD12 = experiment: as above; conditions: Mus musculus, BaF3-NRASD12 cells, 48 hours, read-out: NRas-BaF3 IC50
Protocol: as §6

Wt-BaF3 = experiment: Parental Ba/F3 cell proliferation (CellTiter Glo); conditions: Mus musculus, parental BaF/3 cells, 48 hours
Protocol: as §2, §6

T3 sequence (Q9UM73 whole entry, change not shown, the tested form may be a part): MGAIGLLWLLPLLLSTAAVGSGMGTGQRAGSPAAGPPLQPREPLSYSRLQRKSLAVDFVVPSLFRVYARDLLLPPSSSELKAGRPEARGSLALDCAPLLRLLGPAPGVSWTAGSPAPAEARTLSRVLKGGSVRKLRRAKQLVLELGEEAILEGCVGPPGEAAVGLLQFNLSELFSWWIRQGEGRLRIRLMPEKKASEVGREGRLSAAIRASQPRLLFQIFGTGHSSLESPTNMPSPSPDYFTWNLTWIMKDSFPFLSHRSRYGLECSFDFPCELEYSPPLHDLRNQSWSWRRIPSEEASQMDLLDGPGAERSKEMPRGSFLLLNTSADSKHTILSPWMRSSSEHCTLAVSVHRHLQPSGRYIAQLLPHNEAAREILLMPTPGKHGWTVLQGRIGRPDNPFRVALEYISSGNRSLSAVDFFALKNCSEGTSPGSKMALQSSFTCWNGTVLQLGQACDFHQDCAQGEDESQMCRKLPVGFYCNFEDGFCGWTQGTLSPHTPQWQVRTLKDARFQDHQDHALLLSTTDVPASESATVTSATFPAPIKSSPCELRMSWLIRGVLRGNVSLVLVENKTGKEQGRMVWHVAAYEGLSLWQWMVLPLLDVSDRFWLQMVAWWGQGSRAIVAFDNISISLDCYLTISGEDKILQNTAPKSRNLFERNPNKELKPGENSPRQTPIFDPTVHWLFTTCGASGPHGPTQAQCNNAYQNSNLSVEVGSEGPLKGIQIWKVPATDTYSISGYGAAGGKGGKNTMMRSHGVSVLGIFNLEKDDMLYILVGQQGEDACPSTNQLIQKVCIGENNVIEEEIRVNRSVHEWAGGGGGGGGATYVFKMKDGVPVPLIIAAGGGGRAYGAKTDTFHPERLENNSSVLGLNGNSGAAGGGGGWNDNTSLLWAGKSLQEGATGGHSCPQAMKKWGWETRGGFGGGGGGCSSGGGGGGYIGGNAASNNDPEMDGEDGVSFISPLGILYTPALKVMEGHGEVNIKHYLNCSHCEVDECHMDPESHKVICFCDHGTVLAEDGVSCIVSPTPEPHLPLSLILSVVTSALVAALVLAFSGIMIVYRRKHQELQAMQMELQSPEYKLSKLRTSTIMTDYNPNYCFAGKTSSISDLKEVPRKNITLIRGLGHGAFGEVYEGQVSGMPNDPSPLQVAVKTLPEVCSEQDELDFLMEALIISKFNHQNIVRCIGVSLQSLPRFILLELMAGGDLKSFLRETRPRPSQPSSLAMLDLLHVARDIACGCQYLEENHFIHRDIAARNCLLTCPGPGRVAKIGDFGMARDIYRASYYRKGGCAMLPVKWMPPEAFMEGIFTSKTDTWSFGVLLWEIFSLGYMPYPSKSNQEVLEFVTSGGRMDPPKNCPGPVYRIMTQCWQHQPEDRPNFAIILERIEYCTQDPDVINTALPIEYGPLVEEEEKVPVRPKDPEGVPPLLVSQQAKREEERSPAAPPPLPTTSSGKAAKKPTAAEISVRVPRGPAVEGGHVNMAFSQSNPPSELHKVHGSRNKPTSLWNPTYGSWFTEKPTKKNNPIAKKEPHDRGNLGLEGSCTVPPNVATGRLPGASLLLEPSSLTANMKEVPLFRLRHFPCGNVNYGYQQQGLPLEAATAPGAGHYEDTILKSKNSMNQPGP
T6 sequence (P07948 whole entry, change not shown, the tested form may be a part): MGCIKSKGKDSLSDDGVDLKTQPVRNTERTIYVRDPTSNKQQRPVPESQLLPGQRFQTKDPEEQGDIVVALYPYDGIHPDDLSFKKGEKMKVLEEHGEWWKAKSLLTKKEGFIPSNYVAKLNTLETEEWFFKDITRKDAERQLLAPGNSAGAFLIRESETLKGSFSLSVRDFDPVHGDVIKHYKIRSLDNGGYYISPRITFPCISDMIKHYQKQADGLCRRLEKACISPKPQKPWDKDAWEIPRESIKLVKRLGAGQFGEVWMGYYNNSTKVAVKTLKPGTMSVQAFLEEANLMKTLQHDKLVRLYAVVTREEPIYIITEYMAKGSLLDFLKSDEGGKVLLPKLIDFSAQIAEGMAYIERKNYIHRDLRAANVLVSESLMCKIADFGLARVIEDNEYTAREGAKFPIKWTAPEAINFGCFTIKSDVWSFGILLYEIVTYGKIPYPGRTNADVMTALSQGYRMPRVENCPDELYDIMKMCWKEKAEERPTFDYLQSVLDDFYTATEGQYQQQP
T7 sequence (P35590 whole entry, change not shown, the tested form may be a part): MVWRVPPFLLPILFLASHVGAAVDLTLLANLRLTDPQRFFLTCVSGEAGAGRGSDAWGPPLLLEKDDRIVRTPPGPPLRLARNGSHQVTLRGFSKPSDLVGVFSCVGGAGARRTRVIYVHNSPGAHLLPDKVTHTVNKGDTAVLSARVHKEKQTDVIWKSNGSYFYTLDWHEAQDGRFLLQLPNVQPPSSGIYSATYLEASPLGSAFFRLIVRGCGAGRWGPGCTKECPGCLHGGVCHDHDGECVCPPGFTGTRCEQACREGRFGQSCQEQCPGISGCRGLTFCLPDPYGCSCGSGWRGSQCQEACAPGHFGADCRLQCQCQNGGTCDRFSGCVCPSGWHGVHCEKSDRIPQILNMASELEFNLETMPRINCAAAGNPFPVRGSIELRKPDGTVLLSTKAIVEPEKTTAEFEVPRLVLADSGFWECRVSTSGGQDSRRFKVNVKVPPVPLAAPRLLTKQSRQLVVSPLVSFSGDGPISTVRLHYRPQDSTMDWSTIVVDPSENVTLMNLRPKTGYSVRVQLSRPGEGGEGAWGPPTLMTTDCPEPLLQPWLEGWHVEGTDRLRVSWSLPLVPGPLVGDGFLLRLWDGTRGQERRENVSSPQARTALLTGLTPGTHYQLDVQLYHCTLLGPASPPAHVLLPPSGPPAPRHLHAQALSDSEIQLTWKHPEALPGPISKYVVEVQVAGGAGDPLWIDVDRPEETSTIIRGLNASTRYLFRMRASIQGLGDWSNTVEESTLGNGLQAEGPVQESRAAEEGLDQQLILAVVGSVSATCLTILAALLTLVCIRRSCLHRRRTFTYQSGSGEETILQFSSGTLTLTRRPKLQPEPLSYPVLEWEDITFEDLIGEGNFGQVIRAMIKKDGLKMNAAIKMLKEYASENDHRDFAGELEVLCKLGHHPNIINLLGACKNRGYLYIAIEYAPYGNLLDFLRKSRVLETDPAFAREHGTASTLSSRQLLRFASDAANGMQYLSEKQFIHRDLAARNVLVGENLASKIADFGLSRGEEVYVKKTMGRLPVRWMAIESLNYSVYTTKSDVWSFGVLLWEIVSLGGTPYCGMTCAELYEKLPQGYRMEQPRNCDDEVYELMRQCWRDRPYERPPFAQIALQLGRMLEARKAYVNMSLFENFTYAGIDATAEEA
T5 sequence (P06213 whole entry, stated change not applied, the tested form may be a part): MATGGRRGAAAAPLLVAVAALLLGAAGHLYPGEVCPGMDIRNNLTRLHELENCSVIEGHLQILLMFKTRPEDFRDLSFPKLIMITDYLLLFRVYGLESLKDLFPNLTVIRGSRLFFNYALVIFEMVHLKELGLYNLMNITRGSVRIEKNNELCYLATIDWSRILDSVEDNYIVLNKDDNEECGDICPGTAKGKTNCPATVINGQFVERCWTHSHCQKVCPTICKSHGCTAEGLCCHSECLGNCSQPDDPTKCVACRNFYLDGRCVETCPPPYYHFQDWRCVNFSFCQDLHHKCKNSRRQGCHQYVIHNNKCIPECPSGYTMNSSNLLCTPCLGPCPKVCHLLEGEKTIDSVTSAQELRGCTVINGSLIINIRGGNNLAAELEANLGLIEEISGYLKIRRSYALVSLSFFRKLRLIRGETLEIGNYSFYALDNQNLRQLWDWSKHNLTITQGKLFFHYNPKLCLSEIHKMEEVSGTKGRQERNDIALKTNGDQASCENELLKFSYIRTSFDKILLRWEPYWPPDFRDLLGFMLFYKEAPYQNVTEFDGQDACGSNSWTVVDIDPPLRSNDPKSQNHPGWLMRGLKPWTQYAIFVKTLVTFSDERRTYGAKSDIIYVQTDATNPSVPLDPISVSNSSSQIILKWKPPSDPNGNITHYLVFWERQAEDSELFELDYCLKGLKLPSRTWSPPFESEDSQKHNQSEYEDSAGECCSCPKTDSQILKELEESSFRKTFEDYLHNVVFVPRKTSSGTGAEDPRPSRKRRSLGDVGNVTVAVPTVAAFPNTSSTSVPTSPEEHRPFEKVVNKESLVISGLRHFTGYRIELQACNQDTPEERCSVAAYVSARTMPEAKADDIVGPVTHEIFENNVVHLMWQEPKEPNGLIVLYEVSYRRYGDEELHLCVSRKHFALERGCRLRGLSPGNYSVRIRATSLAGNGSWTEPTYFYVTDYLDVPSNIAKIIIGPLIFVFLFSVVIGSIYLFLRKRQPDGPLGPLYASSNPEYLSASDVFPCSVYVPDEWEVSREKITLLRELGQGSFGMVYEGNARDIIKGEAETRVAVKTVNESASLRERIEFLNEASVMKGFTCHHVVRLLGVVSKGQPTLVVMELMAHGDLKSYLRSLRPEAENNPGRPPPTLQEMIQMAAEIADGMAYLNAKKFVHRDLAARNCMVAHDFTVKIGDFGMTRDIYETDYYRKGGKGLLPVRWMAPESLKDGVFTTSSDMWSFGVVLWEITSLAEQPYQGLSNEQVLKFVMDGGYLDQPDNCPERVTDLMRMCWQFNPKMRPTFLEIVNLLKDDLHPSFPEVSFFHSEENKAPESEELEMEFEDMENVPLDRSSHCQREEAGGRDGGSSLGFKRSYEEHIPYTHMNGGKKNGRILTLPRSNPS

IC50 (BaF3-KRASD12) | IC50 (BaF3-NRASD12) | SMILES | GI50 (BaF3-BCR/ABL) | GI50 (BaF3-BCR/ABL-T315I) | GI50 (BaF3-EML4-ALK) | GI50 (BaF3-TEL-HCK) | GI50 (BaF3-TEL-INSR) | GI50 (BaF3-TEL-LYN) | GI50 (BaF3-TEL-TIE1) | IC50 (Wt-BaF3)
1.82 µM | 2.3 µM | CCN(CC)c1ccc(Nc2ncc3c(n2)N(C)CN(c2cc(NC(=O)c4cccc(C(F)(F)F)c4)ccc2C)C3)cn1 [IA-12, N-(3-(7-((6-(diethylamino)pyridin-3-yl)amino)-1-methyl-1,4-dihydropyrimido[4,5-d]pyrimidin-3(2H)-yl)-4-methylphenyl)-3-(trifluoromethyl)benzamide] | 0.205 µM | 4.5 µM | 3.19 µM | 3.07 µM | 0.977 µM | 1.16 µM | 1.35 µM | 4.11 µM
1.78 µM | 1.41 µM | Cc1ccc(Nc2ncc3c(n2)N(C2CC2)CN(c2cc(NC(=O)c4cccc(C(F)(F)F)c4)ccc2C)C3)cn1 [IB-2, N-(3-(1-cyclopropyl-7-((6-methylpyridin-3-yl)amino)-1,4-dihydropyrimido[4,5-d]pyrimidin-3(2H)-yl)-4-methylphenyl)-3-(trifluoromethyl)benzamide] | 0.0538 µM | 2.9 µM | 3.13 µM | 2.09 µM | 2.16 µM | 1.2 µM | 1.09 µM | 6.03 µM
4.31 µM | 4.41 µM | COc1cc(C(=O)N2CCN(C)CC2)ccc1Nc1ncc2c(n1)N(C)CN(c1cc(NC(=O)c3cccc(C(F)(F)F)c3)ccc1C)C2 [IA-16, N-(3-(7-((2-methoxy-4-(4-methylpiperazine-1-carbonyl)phenyl)amino)-1-methyl-1,4-dihydropyrimido[4,5-d]pyrimidin-3(2H)-yl)-4-methylphenyl)-3-(trifluoromethyl)benzamide] | 1.71 µM | 4.37 µM | 1.54 µM | 2.88 µM | 3.96 µM | 2 µM | 1.58 µM | 4.42 µM
5.83 µM | 5.97 µM | Cc1ccc(Nc2ncc3c(n2)N(C2CCCC2)CN(c2cc(NC(=O)c4cccc(C(F)(F)F)c4)ccc2C)C3)cn1 [IB-3, N-(3-(1-cyclopentyl-7-((6-methylpyridin-3-yl)amino)-1,4-dihydropyrimido[4,5-d]pyrimidin-3(2H)-yl)-4-methylphenyl)-3-(trifluoromethyl)benzamide] | 0.303 µM | 9.23 µM | 5.88 µM | 3.15 µM | – | 3.3 µM | 3.82 µM | 9.71 µM
3.98 µM | 3.38 µM | Cc1ccc(NC(=O)c2cccc(C(F)(F)F)c2)cc1N1Cc2cnc(NCCN(C)C)nc2N(C)C1 [IA-2, N-(3-(7-((2-(dimethylamino)ethyl)amino)-1-methyl-1,4-dihydropyrimido[4,5-d]pyrimidin-3(2H)-yl)-4-methylphenyl)-3-(trifluoromethyl)benzamide] | > 10 µM | – | ~2.78 µM | 2.56 µM | 1.33 µM | 1.32 µM | 1.59 µM | 4.54 µM
4.6 µM | 2.9 µM | Cc1ccc(NC(=O)c2cccc(C(F)(F)F)c2)cc1N1Cc2cnc(Nc3cnn(C)c3)nc2N(C)C1 [IA-10, N-(4-methyl-3-(1-methyl-7-((1-methyl-1H-pyrazol-4-yl)amino)-1,4-dihydropyrimido[4,5-d]pyrimidin-3(2H)-yl)phenyl)-3-(trifluoromethyl)benzamide] | 0.000251 µM | 2.76 µM | 4.64 µM | 1.77 µM | – | 1.43 µM | 2.32 µM | 11.8 µM
5.36 µM | 4.93 µM | Cc1ccc(Nc2ncc3c(n2)N(c2ccccc2)CN(c2cc(NC(=O)c4cccc(C(F)(F)F)c4)ccc2C)C3)cn1 [IB-4, N-(4-methyl-3-(7-((6-methylpyridin-3-yl)amino)-1-phenyl-1,4-dihydropyrimido[4,5-d]pyrimidin-3(2H)-yl)phenyl)-3-(trifluoromethyl)benzamide] | 0.669 µM | – | > 10 µM | 4.61 µM | – | 4.11 µM | 3.68 µM | 17.1 µM
1.69 µM | 1.57 µM | Cc1ccc(Nc2ncc3c(n2)N(C)CN(c2cc(C(=O)Nc4cccc(C(F)(F)F)c4)ccc2C)C3)cn1 [IC-1, 4-methyl-3-(1-methyl-7-((6-methylpyridin-3-yl)amino)-1,4-dihydropyrimido[4,5-d]pyrimidin-3(2H)-yl)-N-(3-(trifluoromethyl)phenyl)benzamide] | 0.00693 µM | 0.196 µM | 1.65 µM | – | – | 0.189 µM | 0.0912 µM | 5.36 µM
8.1 µM | 8.28 µM | Cc1ccc(NC(=O)c2cccc(C(F)(F)F)c2)cc1N1Cc2cnc(N[C@H](C)CO)nc2N(C)C1 [IA-7, (R)—N-(3-(7-((1-hydroxypropan-2-yl)amino)-1-methyl-1,4-dihydropyrimido[4,5-d]pyrimidin-3(2H)-yl)-4-methylphenyl)-3-(trifluoromethyl)benzamide] | 0.665 µM | > 10 µM | 7.47 µM | – | – | 4.48 µM | 4.22 µM | 24.4 µM
5.53 µM | 5.5 µM | Cc1ccc(NC(=O)c2cccc(C(F)(F)F)c2)cc1N1Cc2cnc(NCCc3c[nH]cn3)nc2N(C)C1 [IA-6, N-(3-(7-((2-(1H-imidazol-4-yl)ethyl)amino)-1-methyl-1,4-dihydropyrimido[4,5-d]pyrimidin-3(2H)-yl)-4-methylphenyl)-3-(trifluoromethyl)benzamide] | 2.22 µM | 4.45 µM | ~3.36 µM | – | – | ~3.21 µM | 3.7 µM | 5.14 µM
> 10 µM | > 10 µM | CONC(=O)c1ccc(C)c(N2Cc3cnc(Nc4ccc(C)nc4)nc3N(C)C2)c1 [IC-4, N-methoxy-4-methyl-3-(1-methyl-7-((6-methylpyridin-3-yl)amino)-1,4-dihydropyrimido[4,5-d]pyrimidin-3(2H)-yl)benzamide] | 0.0631 µM | > 10 µM | > 10 µM | – | – | > 10 µM | > 10 µM | > 10 µM
8.33 µM | 9.56 µM | Cc1ccc(NC(=O)c2cccc(C(F)(F)F)c2)cc1N1Cc2cnc(NC3CC3)nc2N(C)C1 [IA-4, N-(3-(7-(cyclopropylamino)-1-methyl-1,4-dihydropyrimido[4,5-d]pyrimidin-3(2H)-yl)-4-methylphenyl)-3-(trifluoromethyl)benzamide] | 0.956 µM | 9.72 µM | 6.79 µM | – | – | 1.32 µM | 4.97 µM | 11.3 µM
